Laboratory results published in US20190209472A1, “FORMULATIONS FOR DERMAL DELIVERY OF POLYMER CONJUGATES OF INDOLOCARBAZOLE COMPOUNDS WITH REDUCED EXPOSURE” (Sienna Biopharmaceuticals, Inc., priority 2017, published 2019).

What was measured:
[1] = system: human keratinocyte
[2] = system: pruritus associated with psoriasis vulgaris; test: Phase 1b maximal use study: exploratory efficacy (I-NRS, PASI, IGA, BSA); assay type: in vivo, human
Excerpt: Efficacy Evaluations: Change from baseline at each study visit in the I-NRS; Change from baseline at each study visit in the Psoriasis Area and Severity Index ([…]) score; PASI-75: response defined as a reduction of ≥75% from baseline at each study visit on the PASI; PASI-50: response defined as a reduction of ≥50% from baseline at each study visit on the PASI; Change from baseline at each study visit in the Investigator Global Assessment (IGA); Proportion of subjects with a ≥1-grade decrease on the IGA at each study visit; Proportion of subjects with a ≥2-grade decrease on the IGA at each study visit; and Change from baseline at each study visit in BSA affected by psoriasis.
Subject Assessments—Itch Numeric Rating Scale: The I-NRS is a 1 item daily PRO measure that the subjects use to assess pruritus severity at its worst in the 24 hours prior to the assessment based on an 11-point numeric rating scale ranging from 0 (“no itching at all”) to 10 (“worst possible itching”). The I-NRS assesses overall pruritus severity. An I-NRS score of at least 4 is required to be eligible for the study. The investigator will evaluate subject eligibility based on itch associated with PV plaques at Screening. The Baseline measurement will be collected on Study Day 1 prior to study drug administration. The change from Baseline at each study visit will be determined.
Investigator Assessments: Investigator assessments include: BSA affected by psoriasis; IGA of overall psoriasis (Apremilast (Otezla) CDER Medical Review of Celgene NDA, 2014. Accessdata.fda.gov. Accessed Aug. 8, 2017.); and PASI (Fredriksson T, Pettersson U. Severe psoriasis—oral therapy with a new retinoid. Dermatologica. 1978; 157(4):238-244.).
Body Surface Area Affected by Psoriasis: Assessment of the percentage of a subject's BSA affected by psoriasis will be made by best estimates of the investigator, using the “handprint” method where 1%=1 subject handprint. At screening and baseline this should be ≥20% of BSA. The change from baseline BSA affected by psoriasis will be determined.
Investigator Global Assessment: The IGA is a site-based clinician-reported outcome measure that assesses the overall severity of psoriasis by evaluating induration (plaque elevation), erythema, and desquamation (scaling) on a 5-point scale from 0 to 4, where 0=Clear to 4=Severe. The investigator will make this assessment to calculate the overall improvement in psoriasis (the proportion of subjects achieving a rating of “Clear” or “Almost Clear” and at least a 2-point decrease [improvement] on the 5-point scale) using the IGA. The proportion of subjects achieving at least a 1-grade and 2-grade decrease from baseline will also be calculated.
Psoriasis Area and Severity Index: The PASI score is a site-based ClinRO by which a weighted sum of erythema, scaling, and induration/thickness scores over different regions of the body is determined, using the algorithm given in Fredriksson T, Pettersson U., Dermatologica. 1978; 157(4):238-244.). Each symptom will be scored on a 5-point scale from 0 to 4, where 0=Clear and 4=Very marked. The change from Baseline in the PASI score, and the percentages of subjects who have achieved a ≥75% or ≥50% reduction from baseline (PASI-75 and PASI-50, respectively), will be determined.

## (9S, 10R, 12R)-10-(3′-mPEG2000-1′,3′-oxazolidine-2′,4′-dione)-2,3,9,10,11,12-hexahydro-9-methyl-1-oxo-9,12-epoxy-1H-diindolo[1,2,3-fg:3′,2′,1′-k,l]pyrrolo[3,4-i][1,6] benzodiazocine] [CT327]
[1]
  Inhibition of human keratinocyte proliferation in vitro: clear inhibitory activity
[2]; Week 4
  IGA 1-grade, % of subjects: (30%)
  IGA 2-grade, % of subjects: (13.3%)
  NRS 3-grade, % of subjects: (60.0%)
  NRS 50, % of subjects: (46.7%)
  NRS (% change from baseline), mean: −41.35%
  PASI 50, % of subjects: (33.3%)
  PASI 75, % of subjects: (10.0%)
  PASI (change from baseline), mean: −6.44
[2]; Week 4, 0.5% SNA-120 (w/w) ointment twice daily, open label
  NRS (change from baseline), mean: −3.4
[2]; post hoc analysis
  Subjects with at least a 4-grade improvement in the Itch Numeric Rating Scale (I-NRS): approximately 57% of subjects
